# Measurements published in patent publication US10703764B2, “Benzopiperazine compositions as BET bromodomain inhibitors” (FORMA Therapeutics, Inc., priority 2013, dated 2020).
# Experiments:
# [1] = target: T1, BRD4 BD1 (Homo sapiens, UniProt O60885); experiment: AlphaScreen binding assay, BRD4 Bromodomain 1
# T1 construct: made in house
# How it was run: (§1)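 An AlphaScreen competition format was used with His-BRD4 BD1 or BD2 and biotin-H4 K5/8/12/16-acetyl peptide, each at matched final levels of 50 nM (BD1) or 100 nM (BD2). Incubation in HEPES/NaCl buffer with 0.1% BSA and 0.01% Triton X-100 ran ≥1 h before IC50 determination.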
# [2] = target: T2, BRD4 BD2 (Homo sapiens, UniProt O60885); experiment: AlphaScreen binding assay, BRD4 Bromodomain 2
# T2 construct: made in house
# How it was run: as §1
SMILES,IC50 [1] [nM],IC50 [2] [nM]
CC(=O)N1c2ccc(-c3ccc(S(C)(=O)=O)cc3)cc2N(C(=O)c2ccc(Oc3cc(Cl)cc(Cl)c3)o2)C[C@@H]1C [Example I-880],> 10000,> 500
CC(=O)N1c2ccc(-c3ccc(S(C)(=O)=O)cc3)cc2N(C(=O)c2cn(C)cn2)C[C@@H]1C [Example I-881],> 10000,> 500
COc1ccc2[nH]c(C(=O)N3CC(C)N(C(C)=O)c4ccc(-c5ccc(S(C)(=O)=O)cc5)cc43)cc2c1 (centres unmarked) [Example I-882],1000 to 10000,50 to 500
COc1cccc2[nH]c(C(=O)N3CC(C)N(C(C)=O)c4ccc(-c5ccc(S(C)(=O)=O)cc5)cc43)cc12 (centres unmarked) [Example I-883],> 10000,> 500
CC(=O)N1c2ccc(-c3ccc(S(C)(=O)=O)cc3)cc2N(C(=O)c2ncoc2C)C[C@@H]1C [Example I-884],> 10000,> 500
CC(=O)N1c2ccc(-c3ccc(S(C)(=O)=O)cc3)cc2N(C(=O)c2csc(-c3ccccc3)n2)C[C@@H]1C [Example I-885],> 10000,> 500
CC(=O)N1c2ccc(-c3ccc(S(C)(=O)=O)cc3)cc2N(C(=O)c2ccc(-c3ccccc3)o2)C[C@@H]1C [Example I-886],> 10000,50 to 500
CC(=O)N1c2ccc(-c3ccc(S(C)(=O)=O)cc3)cc2N(C(=O)c2ccc(C(F)(F)F)o2)C[C@@H]1C [Example I-887],> 10000,50 to 500
CC(=O)N1c2ccc(-c3ccc(S(C)(=O)=O)cc3)cc2N(C(=O)c2ccc(S(C)(=O)=O)o2)C[C@@H]1C [Example I-888],> 10000,> 500
CC(=O)Nc1cccc(C(=O)N2C[C@H](C)N(C(C)=O)c3ccc(-c4ccc(S(C)(=O)=O)cc4)cc32)c1 [Example I-889],> 10000,> 500
CC(=O)N1c2ccc(-c3ccc(S(C)(=O)=O)cc3)cc2N(C(=O)c2ccc(CN)o2)C[C@@H]1C [Example I-890],1000 to 10000,50 to 500
CC(=O)N1c2ccccc2N(Cc2ccc(N(C)C)cc2)C[C@@H]1C [Example I-891],> 10000,> 500
CC(=O)N1c2ccccc2N(Cc2ccc(C(C)C)cc2)C[C@@H]1C [Example I-892],> 10000,> 500
CC(=O)N1c2ccccc2N(Cc2cccc(C)c2)C[C@@H]1C [Example I-893],> 10000,> 500
CC(=O)N1c2ccccc2N(Cc2ccc(Cl)cc2Cl)C[C@@H]1C [Example I-894],> 10000,> 500
CC(=O)N1c2ccccc2N(Cc2ccc(C)cc2)C[C@@H]1C [Example I-895],> 10000,> 500
CC(=O)N1c2ccccc2N(Cc2ccccc2C)C[C@@H]1C [Example I-896],> 10000,> 500
CC(=O)N1c2ccccc2N(Cc2ccc(F)cc2F)C[C@@H]1C [Example I-897],> 10000,> 500

SMILES,IC50 [1] [nM],IC50 [2] [nM]
CC(=O)N1c2ccccc2N(Cc2ccc(Cl)c(F)c2)C[C@@H]1C [Example I-898],> 10000,> 500
CC(=O)N1c2ccccc2N(Cc2cccc(C(F)(F)F)c2)C[C@@H]1C [Example I-899],> 10000,> 500
CC(=O)N1c2ccccc2N(Cc2cc(C(F)(F)F)cc(C(F)(F)F)c2)C[C@@H]1C [Example I-900],> 10000,> 500
CCc1ccc(CN2C[C@H](C)N(C(C)=O)c3ccccc32)cc1 [Example I-901],> 10000,> 500
COc1cc(CN2C[C@H](C)N(C(C)=O)c3ccccc32)cc(OC)c1 [Example I-902],> 10000,> 500
CC(=O)N1c2ccccc2N(Cc2cc(C)ccc2C)C[C@@H]1C [Example I-903],> 10000,> 500
CC(=O)N1c2ccccc2N(Cc2ccc(O)c(C)c2)C[C@@H]1C [Example I-904],> 10000,> 500
CC(=O)N1c2ccccc2N(Cc2cc(C)nn2C)C[C@@H]1C [Example I-905],> 10000,> 500
CC(=O)N1c2ccccc2N(Cc2ccccc2OCCN(C)C)C[C@@H]1C [Example I-906],> 10000,50 to 500
CC(=O)N1c2ccccc2N(Cc2ccc(OCCN(C)C)cc2)C[C@@H]1C [Example I-907],> 10000,> 500
CC(=O)N1c2ccccc2N(Cc2cccc(OCCN(C)C)c2)C[C@@H]1C [Example I-908],> 10000,50 to 500
CC(=O)N1c2ccccc2N(Cc2ccccc2)C[C@@H]1C [Example I-909],> 10000,50 to 500
CC(=O)N1c2ccccc2N(CC2CCCCC2)C[C@@H]1C [Example I-910],> 10000,> 500
CC(=O)N1c2ccccc2N(Cc2ccc(C(F)(F)F)nc2)C[C@@H]1C [Example I-911],> 10000,> 500
CC(=O)N1c2ccccc2N(Cc2ccncc2)C[C@@H]1C [Example I-912],> 10000,> 500
CC(=O)N1c2ccccc2N(Cc2ccccn2)C[C@@H]1C [Example I-913],> 10000,> 500
COc1cncc(CN2C[C@H](C)N(C(C)=O)c3ccccc32)c1 [Example I-914],> 10000,> 500
CC(=O)N1c2ccccc2N(Cc2nccs2)C[C@@H]1C [Example I-915],> 10000,> 500

# Now from value to compound:
IC50 [1] [nM],IC50 [2] [nM],SMILES
> 10000,> 500,CC(=O)N1c2ccccc2N(Cc2ccc(-c3ccccc3)cc2)C[C@@H]1C [Example I-916]
> 10000,> 500,CC(=O)N1c2ccccc2N(Cc2ccc(OC(C)C)cc2)C[C@@H]1C [Example I-917]
> 10000,> 500,CC(=O)N1c2ccccc2N(Cc2cccc(Oc3ccccc3)c2)C[C@@H]1C [Example I-918]
> 10000,> 500,CC(=O)N1c2ccccc2N(Cc2ccc(Oc3ccccc3)cc2)C[C@@H]1C [Example I-919]
> 10000,> 500,CC(=O)N1c2ccccc2N(Cc2ccc3c(c2)OCO3)C[C@@H]1C [Example I-920]
> 10000,50 to 500,CC(=O)N1c2ccccc2N(Cc2cccc3c2OCO3)C[C@@H]1C [Example I-921]
> 10000,> 500,CC(=O)N1c2ccccc2N(Cc2ccc(N3CCOCC3)nc2)C[C@@H]1C [Example I-922]
> 10000,> 500,CC(=O)N1c2ccccc2N(Cc2ccc(O)cc2)C[C@@H]1C [Example I-923]
> 10000,> 500,CC(=O)N1c2ccccc2N(Cc2cccnc2)C[C@@H]1C [Example I-924]
> 10000,> 500,CC(=O)N1c2ccccc2N(CC2CCOCC2)C[C@@H]1C [Example I-925]
> 10000,> 500,CC(=O)N1c2ccccc2N(Cc2cncn2C)C[C@@H]1C [Example I-926]
> 10000,> 500,CCC[C@@H](C)CN1C[C@H](C)N(C(C)=O)c2ccccc21 [Example I-927]
> 10000,> 500,CC(=O)N1CCC[C@H](CN2C[C@H](C)N(C(C)=O)c3ccccc32)C1 [Example I-928]
> 10000,> 500,CC(=O)N1c2ccccc2N(CC2CCN(C(C)C)CC2)C[C@@H]1C [Example I-929]
> 10000,> 500,COc1ccc(OC)c(S(=O)(=O)N2C[C@H](C)N(C(C)=O)c3ccccc32)c1 [Example I-930]
> 10000,> 500,CC(=O)N1c2ccccc2N(S(=O)(=O)c2ccccc2F)C[C@@H]1C [Example I-931]

IC50 [1] [nM],IC50 [2] [nM],SMILES
> 10000,> 500,CC(=O)N1c2ccccc2N(S(=O)(=O)c2ccccc2)C[C@@H]1C [Example I-932]
> 10000,> 500,CC(=O)N1c2ccccc2N(S(=O)(=O)c2ccn(C)n2)C[C@@H]1C [Example I-933]
> 10000,> 500,CC(=O)N1c2ccccc2N(S(=O)(=O)c2cccnc2)C[C@@H]1C [Example I-934]
> 10000,> 500,CC(=O)N1c2ccccc2N(S(=O)(=O)c2ccc(Cl)cc2)C[C@@H]1C [Example I-935]
> 10000,> 500,COc1ccc(S(=O)(=O)N2C[C@H](C)N(C(C)=O)c3ccccc32)cc1 [Example I-936]
> 10000,> 500,CC(=O)N1c2ccccc2N(S(=O)(=O)c2ccc(C(F)(F)F)cc2)C[C@@H]1C [Example I-937]
> 10000,> 500,CC(=O)N1c2ccccc2N(S(=O)(=O)c2ccc(C#N)cc2)C[C@@H]1C [Example I-938]
> 10000,> 500,CC(=O)N1c2ccccc2N(S(=O)(=O)c2ccc(OC(F)(F)F)cc2)C[C@@H]1C [Example I-939]
> 10000,> 500,CC(=O)N1c2ccccc2N(S(=O)(=O)c2ccc(C)cc2)C[C@@H]1C [Example I-940]
> 10000,> 500,CC(=O)N1c2ccccc2N(S(=O)(=O)c2ccccc2C)C[C@@H]1C [Example I-941]
> 10000,> 500,CC(=O)N1c2ccccc2N(S(=O)(=O)c2ccccc2Cl)C[C@@H]1C [Example I-942]
> 10000,> 500,CC(=O)N1c2ccccc2N(S(=O)(=O)c2ccccc2C#N)C[C@@H]1C [Example I-943]
> 10000,> 500,CC(=O)N1c2ccccc2N(S(=O)(=O)c2cccc(C#N)c2)C[C@@H]1C [Example I-944]
> 10000,> 500,COc1cccc(S(=O)(=O)N2C[C@H](C)N(C(C)=O)c3ccccc32)c1 [Example I-945]
> 10000,> 500,CC(=O)N1c2ccccc2N(S(=O)(=O)c2cccc(Cl)c2)C[C@@H]1C [Example I-946]
